Laboratory results: US20240076347A1, “METHODS FOR PREVENTING FUNGAL INFECTIONS” (Cidara Therapeutics, Inc., priority 2016, published 2024)
Numbered stars: 1 amine (or outer) side, 2 acyl side, 3 side chain; on linkers, the order of the positions; unused ones are H or OH. Bridge positions count the residues as written; N and C are the ends. Square brackets hold non-standard residues; d marks the D form. Peptide text beside a SMILES is read from it. * marks the point of attachment. ξ: configuration not given here. Orn(4R-OH,5R-OCH2CH2NMe3+) = C[N+](C)(C)CCO[C@@H](N[*:3])[C@H](O)C[C@H](N[*:1])C(=O)[*:2]; pTerphenylCO(4''-OnC5H11) = CCCCCOc1ccc(-c2ccc(-c3ccc(C(=O)*)cc3)cc2)cc1; hTyr(3S-OH,4S-OH) = N[C@H](C(=O)O)[C@H](O)[C@@H](O)c1ccc(O)cc1; X1 = C[C@H]1CN([*:1])C(C(=O)[*:2])C1O; Hyp = O=C(O)[C@@H]1C[C@@H](O)CN1; ξT = CC(O)C(N)C(=O)O

Assays:
C. albicans strain 529L = test: Rat model of vulvovaginal candidiasis, vaginal lavage and tissue burden; type: in vivo, Candida albicans; conditions: for reduction in terminal vaginal tissue burden: not statistically lower than vehicle
Procedure: Animal Strain. Wistar rats were supplied by Harlan Laboratories UK and were specific pathogen free. Rats weighed […] at the time of surgery. Ovariectomies were performed. Rats were allowed 4-7 days recovery before transportation to the facility where the experiment was to be performed. Following arrival, rats were allowed at least 4 days acclimatization before start of the experiment. Rats weighed 100-120 g at the time of ovariectomy and were about 300 g at start of the experiment.
Pre-conditioning. Female Wistar rats underwent ovariectomy at least 10 days prior to the study commencing. They were further pre-conditioned by treatment with 5 mg/kg 17-β-estradiol administered subcutaneously (SC) every other day on Days −7, −5, −3 and −1 prior to infection with C. albicans strain 529. Estradiol treatment continued every other day throughout the study to 7 days post-infection.
Yeast Isolate. Candida albicans strain 529L was used in this chronic rat vaginal infection model.
Infection. Yeast strains were inoculated aerobically onto Sabouraud dextrose agar media (SAB) containing 0.05 mg/mL chloramphenicol and incubated at 30° C. for 48-72 h. 18-24 h prior to infection, Yeast Peptone Dextrose (YPD) broths were inoculated with 2-3 isolated colonies from agar plates and incubated overnight (37° C. on an orbital shaker). Broths containing C. albicans strain 529L were washed 3 times with sterile phosphate buffered saline (PBS) before dilution to the correct inoculum for infection. Cell counts were determined using a haemocytometer and confirmed by quantitative culture on Sabouraud dextrose agar.
Rats were infected with 0.1 mL by intravaginal administration under inhaled isoflurane anaesthesia using about 9.8×10^5 CFU/mL (9.8×10^4 CFU/Rat) C. albicans strain 529L
Treatment. […] The fluconazole treatment also started at 24 h post infection but was administered by the PO route at the dose volume and frequency shown in Table 7. The study design is further outlined in FIG. 19.
Reduction in weight and general loss of condition due to estradiol treatment are also typical in this rat model. Colonization with C. albicans was determined by quantitative culture of daily vaginal lavage samples. Rats were euthanized 9 days post infection and C. albicans determined by quantitative culture of vaginal tissue (including uterine horns).
Lavage samples were obtained on Days 1 (pre-treatment), 2, 3, 5, 7, and 9 days post infection by flushing rat vaginas 4 times with 0.1 mL pre-warmed sterile PBS. Following euthanasia, vaginal tissue including uterine horns was removed prior to weighing. Tissues were homogenized in 2 mL sterile PBS using a bead-beater. Vaginal wash and tissue homogenates were diluted appropriately then quantitatively cultured on to Sabouraud dextrose agar containing 0.05 mg/mL chloramphenicol and incubated at 37° C. for up to 72 h before being counted.
Statistical analysis. Data were analyzed using StatsDirect software (version 2.7.8) using the non-parametric Kruskal-Wallis test and if this was statistically significant all pairwise comparisons were analyzed (Conover-Inman).

C. parapsilosis = test: In vitro susceptibility testing (CLSI M27-A3); type: cell-based, Candida parapsilosis; conditions: Lodderomyces parapsilosis, 24 h
Procedure: Strains. Ten clinical Candida strains were used for the in vivo treatment studies, including four C. albicans, three C. glabrata, and three C. parapsilosis strains (Table 18). This group was selected to encompass phenotypic variability in susceptibility to triazoles and echinocandins and based on similar fitness in the animal model as defined by the amount of growth in control animals over 24 h. The organisms were maintained, grown, and quantified on Sabouraud's dextrose agar (SDA) plates.
In vitro susceptibility testing. All isolates were tested in accordance with the standards in CLSI document M27-A3. The MICs were determined visually after 24 h of incubation as the lowest concentration of drug that causes a significant diminution (≥50%) of growth compared to controls. MICs were determined on three separate occasions in duplicate.

[1] = lavage Day 1 post treatment (Day 2 post infection), 5 mg/kg SC dosed once
[2] = lavage Day 1 post treatment (Day 2 post infection), 5 mg/kg SC dosed twice
[3] = lavage Day 1 post treatment (Day 2 post infection), 10 mg/kg SC dosed once
[4] = lavage Day 2 post treatment (Day 3 post infection), 5 mg/kg SC dosed once
[5] = lavage Day 2 post treatment (Day 3 post infection), 5 mg/kg SC dosed twice
[6] = lavage Day 2 post treatment (Day 3 post infection), 10 mg/kg SC dosed once
[7] = lavage Day 4 post treatment (Day 5 post infection), 5 mg/kg SC dosed once
[8] = lavage Day 4 post treatment (Day 5 post infection), 5 mg/kg SC dosed twice
[9] = lavage Day 4 post treatment (Day 5 post infection), 10 mg/kg SC dosed once
[10] = lavage Day 5 post infection, 10 mg/kg SC once
[11] = lavage Day 6 post treatment (Day 7 post infection), 5 mg/kg SC dosed once
[12] = lavage Day 6 post treatment (Day 7 post infection), 5 mg/kg SC dosed twice
[13] = lavage Day 6 post treatment (Day 7 post infection), 10 mg/kg SC dosed once
[14] = lavage Day 8 post treatment (Day 9 post infection), 5 mg/kg SC dosed once
[15] = lavage Day 8 post treatment (Day 9 post infection), 5 mg/kg SC dosed twice
[16] = lavage Day 8 post treatment (Day 9 post infection), 10 mg/kg SC dosed once
[17] = terminal vaginal tissue (vagina, uterus, uterine horns) Day +9 post infection, 5 mg/kg SC dosed once
[18] = terminal vaginal tissue Day +9 post infection, 5 mg/kg SC dosed twice
[19] = terminal vaginal tissue Day +9 post infection, 10 mg/kg SC dosed once
[20] = vaginal lavage Day 1 post infection, pre-treatment, 5 mg/kg SC dosed once group
[21] = vaginal lavage Day 1 post infection, pre-treatment, 5 mg/kg SC dosed twice group
[22] = vaginal lavage Day 1 post infection, pre-treatment, 10 mg/kg SC dosed once group

Compound: CCCCCOc1ccc(-c2ccc(-c3ccc(C(=O)N[C@H]4C[C@@H](O)[C@@H](OCC[N+](C)(C)C)NC(=O)C5C(O)[C@@H](C)CN5C(=O)[C@H]([C@@H](C)O)NC(=O)[C@H]([C@H](O)[C@@H](O)c5ccc(O)cc5)NC(=O)[C@@H]5C[C@@H](O)CN5C(=O)C(C(C)O)NC4=O)cc3)cc2)cc1 (stereo partly drawn) [CD101] ({pTerphenylCO(4''-OnC5H11)}-[Orn(4R-OH,5R-OCH2CH2NMe3+)][ξT][Hyp][hTyr(3S-OH,4S-OH)]T[X1]; lactam 1-C)
- reduction in terminal vaginal tissue burden (C. albicans strain 529L; 5 mg/kg SC once, Day 9): about 0.4 Log10 CFU/g
- reduction in terminal vaginal tissue burden (C. albicans strain 529L; 5 mg/kg SC twice, Day 9): about 0.9 Log10 CFU/g
- rats with tissue burdens below the levels of detection (C. albicans strain 529L; 10 mg/kg SC once, Day 9): 5/6
- CFU (C. albicans strain 529L; 10 mg/kg SC once, all but one rat, Day 9): undetectable CFU
- Group Geometric mean (C. albicans strain 529L; [1]): 3.34 × 10^2 CFU/mL
- Log Group Geometric mean (C. albicans strain 529L; [1]): 2.52 CFU/mL
- Log reduction from vehicle control (C. albicans strain 529L; [1]): 1.17 CFU/mL
- Group Geometric mean (C. albicans strain 529L; [2]): 2.56 × 10^2 CFU/mL
- Log Group Geometric mean (C. albicans strain 529L; [2]): 2.41 CFU/mL
- Log reduction from vehicle control (C. albicans strain 529L; [2]): 1.29 CFU/mL
- Group Geometric mean (C. albicans strain 529L; [3]): 2.48 × 10^2 CFU/mL
- Log Group Geometric mean (C. albicans strain 529L; [3]): 2.39 CFU/mL
- Log reduction from vehicle control (C. albicans strain 529L; [3]): 1.30 CFU/mL
- burden vs vehicle, statistics (C. albicans strain 529L; lavage Day 2 post infection): neither the CD101 nor fluconazole burden was statistically different from the vehicle burden
- reduction in burden (C. albicans strain 529L; lavage Day 2 post infection, all doses of CD101): about 1.3 Log10 CFU/mL
- Group Geometric mean (C. albicans strain 529L; [4]): 1.21 × 10^2 CFU/mL
- Log Group Geometric mean (C. albicans strain 529L; [4]): 2.08 CFU/mL
- Log reduction from vehicle control (C. albicans strain 529L; [4]): 1.49 CFU/mL
- Group Geometric mean (C. albicans strain 529L; [5]): 1.95 × 10^2 CFU/mL
- Log Group Geometric mean (C. albicans strain 529L; [5]): 2.29 CFU/mL
- Log reduction from vehicle control (C. albicans strain 529L; [5]): 1.28 CFU/mL
- Group Geometric mean (C. albicans strain 529L; [6]): 23.2 CFU/mL
- Log Group Geometric mean (C. albicans strain 529L; [6]): 1.37 CFU/mL
- Log reduction from vehicle control (C. albicans strain 529L; [6]): 2.21 CFU/mL
- burden vs vehicle, statistics (C. albicans strain 529L; lavage Day 3 post infection, all treatments): statistically different from the vehicle treatments
- Group Geometric mean (C. albicans strain 529L; [7]): 1.70 × 10^3 CFU/mL
- Log Group Geometric mean (C. albicans strain 529L; [7]): 3.23 CFU/mL
- Log reduction from vehicle control (C. albicans strain 529L; [7]): 0.99 CFU/mL
- Group Geometric mean (C. albicans strain 529L; [8]): 1.73 × 10^3 CFU/mL
- Log Group Geometric mean (C. albicans strain 529L; [8]): 3.24 CFU/mL
- Log reduction from vehicle control (C. albicans strain 529L; [8]): 0.98 CFU/mL
- Group Geometric mean (C. albicans strain 529L; [9]): 1.73 CFU/mL
- Log Group Geometric mean (C. albicans strain 529L; [9]): 0.24 CFU/mL
- Log reduction from vehicle control (C. albicans strain 529L; [9]): 3.98 CFU/mL
- burden reduced to (C. albicans strain 529L; lavage Day 5 post infection, 5 mg/kg SC once or twice, not statistically different from vehicle): about 1 Log10 CFU/m
- burden reduced to (C. albicans strain 529L; [10]): about 4 Logo CFU/mL
- rats having burden below the limit of detection (C. albicans strain 529L; [10]): 5/6
- Group Geometric mean (C. albicans strain 529L; [11]): 4.56 × 10^3 CFU/mL
- Log Group Geometric mean (C. albicans strain 529L; [11]): 3.66 CFU/mL
- Log reduction from vehicle control (C. albicans strain 529L; [11]): 0.52 CFU/mL
- Group Geometric mean (C. albicans strain 529L; [12]): 6.47 × 10^2 CFU/mL
- Log Group Geometric mean (C. albicans strain 529L; [12]): 2.81 CFU/mL
- Log reduction from vehicle control (C. albicans strain 529L; [12]): 1.37 CFU/mL
- Group Geometric mean (C. albicans strain 529L; [13]): 2.59 CFU/mL
- Log Group Geometric mean (C. albicans strain 529L; [13]): 0.41 CFU/mL
- Log reduction from vehicle control (C. albicans strain 529L; [13]): 3.77 CFU/mL
- Group Geometric mean (C. albicans strain 529L; [14]): 4.58 × 10^3 CFU/mL
- Log Group Geometric mean (C. albicans strain 529L; [14]): 3.66 CFU/mL
- Log reduction from vehicle control (C. albicans strain 529L; [14]): 0.64 CFU/mL
- Group Geometric mean (C. albicans strain 529L; [15]): 1.28 × 10^3 CFU/mL
- Log Group Geometric mean (C. albicans strain 529L; [15]): 3.11 CFU/mL
- Log reduction from vehicle control (C. albicans strain 529L; [15]): 1.19 CFU/mL
- Group Geometric mean (C. albicans strain 529L; [16]): 2.75 CFU/mL
- Log Group Geometric mean (C. albicans strain 529L; [16]): 0.44 CFU/mL
- Log reduction from vehicle control (C. albicans strain 529L; [16]): 3.86 CFU/mL
- Group Geometric mean (C. albicans strain 529L; [17]): 1.37 × 10^5 CFU/g
- Log Group Geometric mean (C. albicans strain 529L; [17]): 5.14 CFU/g
- Log reduction from vehicle control (C. albicans strain 529L; [17]): 0.36 CFU/g
- Group Geometric mean (C. albicans strain 529L; [18]): 4.00 × 10^4 CFU/g
- Log Group Geometric mean (C. albicans strain 529L; [18]): 4.60 CFU/g
- Log reduction from vehicle control (C. albicans strain 529L; [18]): 0.89 CFU/g
- Group Geometric mean (C. albicans strain 529L; [19]): 5.52 CFU/g
- Log Group Geometric mean (C. albicans strain 529L; [19]): 0.74 CFU/g
- Log reduction from vehicle control (C. albicans strain 529L; [19]): 4.75 CFU/g
- Group Geometric mean (C. albicans strain 529L; [20]): 9.11 × 10^2 CFU/mL
- Log Group Geometric mean (C. albicans strain 529L; [20]): 2.96 CFU/mL
- Log reduction from vehicle control (C. albicans strain 529L; [20]): −0.52 CFU/mL
- Group Geometric mean (C. albicans strain 529L; [21]): 1.83 × 10^3 CFU/mL
- Log Group Geometric mean (C. albicans strain 529L; [21]): 3.26 CFU/mL
- Log reduction from vehicle control (C. albicans strain 529L; [21]): −0.83 CFU/mL
- Group Geometric mean (C. albicans strain 529L; [22]): 3.68 × 10^2 CFU/mL
- Log Group Geometric mean (C. albicans strain 529L; [22]): 2.57 CFU/mL
- Log reduction from vehicle control (C. albicans strain 529L; [22]): −0.13 CFU/mL
- MIC (C. parapsilosis; strain 20423.072): 0.5 µg/mL
- MIC (C. parapsilosis; strain 20477.048): 1 µg/mL
- MIC (C. parapsilosis; strain 20519.069): 1 µg/mL
